Test results published in patent US20210230170A1, “KRAS G12C INHIBITORS” (Mirati Therapeutics, Inc., priority 2018, published 2021).

Target: T1, KRas G12C (Homo sapiens, UniProt P01116, G12C)
T1 construct: NCI-H358 cells (ATCC CRL-5807) express KRas G12C; host or cells: NCI-H358
Assay: Inhibition of KRas G12C in NCI-H358 cells measured by phosphorylated ERK (Phospho-ERK)
Type: cell-based
Details: pERK(Thr202/Tyr204) signal normalized with GAPDH, percent of DMSO control, 3 hours compound treatment
Procedure: The cellular inhibition of KRAs G12C by exemplary compounds of the present invention was determined by measuring the amount of a downstream marker of KRas activity, phosphorylated ERK (“Phospho-ERK”).
NCI-H358 cells (ATCC CRL-5807) express KRas G12C and were grown in RPMI medium supplemented with 10% fetal bovine serum, penicillin/streptomycin and 10 mM HEPES. Cells were plated in poly-D-Lysine coated 96-well plates at a concentration of 50,000 cells/well and allowed to attach for 8-12 hours. Diluted compounds were then added at a final concentration of 0.5% DMSO. After 3 hours, the medium was removed, 150 μL of 4% formaldehyde was added and the plates were incubated for 20 minutes. The plates were washed with PBS, and permeabilized using 150 μL of ice cold 100% methanol for 10 minutes. Non-specific antibody binding to the plates was blocked using 100 μL Licor Blocking Buffer (Li-Cor Biotechnology, Lincoln Nebr.) for 1 hour at room temperature. Positive control samples and samples lacking cells were parallel processed with test samples as standards.
The amount Phospho-ERK was determined using an antibody specific for the phosphorylated form of ERK and compared to the amount of GAPDH. Primary antibodies used for detection were added as follows: Phospho-ERK (Cell Signaling cs9101) diluted 1:500 and GAPDH (Millipore MAB374) diluted 1:5000 in Licor block+0.05% Tween 20. The plates were incubated for 2 hours at room temperature. The plates were washed with PBS+0.05% Tween 20.
Secondary antibodies used to visualize primary antibodies were added as follows: Anti-rabbit-680 diluted 1:1000 and Anti-mouse-800 diluted 1:1000 in Licor Block+0.05% Tween 20 and incubated for 1 hour at room temperature. The plates were washed with PBS+0.05% Tween 20. A 100 μL aliquot of PBS was added to each well and the plates were read on a LICOR AERIUS plate reader.
The pERK(Thr202/Tyr204) signal was normalized with the GAPDH signal and percent of DMSO control values were calculated. IC50 values were generated using a 4 parameter fit of the dose response curve. Key: “A”≤500 nM; “B”>500 nM and ND=not determined.

T1 sequence (P01116 1-188 isoform P01116-2 G12C): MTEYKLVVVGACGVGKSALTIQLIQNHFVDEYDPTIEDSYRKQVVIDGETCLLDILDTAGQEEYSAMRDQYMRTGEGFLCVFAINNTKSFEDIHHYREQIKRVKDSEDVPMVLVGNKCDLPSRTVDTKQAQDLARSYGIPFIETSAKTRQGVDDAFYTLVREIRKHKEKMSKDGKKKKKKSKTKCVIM

SMILES	IC50
C=CC(=O)N1CCN(c2nc(OC[C@@H]3CCCN3C)nc3c2CCCN(c2cccc4cccc(C)c24)C3)C[C@@H]1CC#N [Example 1, 2-[(2S)-4-[8-(8-methyl-1-naphthyl)-2-[[(2S)-1-Methylpyrrolidin-2-yl]methoxy]-5,6,7,9-tetrahydropyrimido[4,5-c]azepin-4-yl]-1-prop-2-enoyl-piperazin-2-yl]acetonitrile]	≤ 500 nM
C=C(F)C(=O)N1CCN(c2nc(OC[C@@H]3CCCN3C)nc3c2CCCN(c2cccc4cccc(C)c24)C3)C[C@@H]1CC#N [Example 2, 2-[(2S)-1-(2-fluoroprop-2-enoyl)-4-[8-(8-methyl-1-naphthyl)-2-[[(2S)-1-methylpyrrolidin-2-yl]methoxy]-5,6,7,9-tetrahydropyrimido[4,5-c]azepin-4-yl]piperazin-2-yl]acetonitrile]	> 500 nM
C=CC(=O)N1CCN(c2nc(OC[C@@H]3CCCN3C)nc3c2CCCN(c2c(C)ccc4ccccc24)C3)C[C@@H]1CC#N [Example 3, 2-[(2S)-4-[8-(2-methyl-1-naphthyl)-2-[[(2S)-1-methylpyrrolidin-2-yl]methoxy]-5,6,7,9-tetrahydropyrimido[4,5-c]azepin-4-yl]-1-prop-2-enoyl-piperazin-2-yl]acetonitrile]	≤ 500 nM
C=CC(=O)N1CCN(c2nc(OC[C@@H]3CCCN3C)nc3c2CCCN(c2ccccc2C)C3)C[C@@H]1CC#N [Example 4, 2-[(2S)-4-[2-[[(2S)-1-methylpyrrolidin-2-yl]methoxy]-8-(o-tolyl)-5,6,7,9-tetrahydropyrimido[4,5-c]azepin-4-yl]-1-prop-2-enoyl-piperazin-2-yl]acetonitrile]	> 500 nM
C=CC(=O)N1CCN(c2nc(OC[C@@H]3CCCN3C)nc3c2CCCN(c2ccccc2)C3)C[C@@H]1CC#N [Example 5, 2-[(2S)-4[2-[[(2S)-1-methylpyrrolidin-2-yl]methoxy]-8-phenyl-5,6,7,9-tetrahydropyrimido[4,5-c]azepin-4-yl]-1-prop-2-enoyl-piperazin-2-yl]acetonitrile]	> 500 nM
C=CC(=O)N1CCN(c2nc(OC[C@@H]3CCCN3C)nc3c2CCCN(c2cccc4ccccc24)C3)C[C@@H]1CC#N [Example 6, 2-[(2S)-4-[2-[[(2S)-1-methylpyrrolidin-2-yl]methoxy]-8-(1-naphthyl)-5,6,7,9-tetrahydropyrimido[4,5-c]azepin-4-yl]-1-prop-2-enoyl-piperazin-2-yl]acetonitrile]	> 500 nM
C=CC(=O)N1CCN(c2nc(OC[C@@H]3CCCN3C)nc3c2CCCN(c2cccc4cccc(Cl)c24)C3)C[C@@H]1CC#N [Example 7, 2-((S)-1-acryloyl-4-(8-(8-chloronaphthalen-1-yl)-2-(((S)-1-methylpyrrolidin-2-yl)methoxy)-6,7,8,9-tetrahydro-5H-pyrimido[4,5-c]azepin-4-yl)piperazin-2-yl)acetonitrile]	> 500 nM
C=CC(=O)N1CCN(c2nc(OC[C@@H]3CCCN3C)nc3c2CCCN(c2cccc(C(C)C)c2)C3)C[C@@H]1CC#N [Example 8, 2-[(2S)-4-[8-(3-isopropylphenyl)-2-[[(2S)-1-methylpyrrolidin-2-yl]methoxy]-5,6,7,9-tetrahydropyrimido[4,5-c]azepin-4-yl]-1-prop-2-enoyl-piperazin-2-yl]acetonitrile]	> 500 nM
C=CC(=O)N1CCN(c2nc(OC[C@@H]3CCCN3C)nc3c2CCCN(c2cccc(F)c2C)C3)C[C@@H]1CC#N [Example 9, 2-((S)-1-acryloyl-4-(8-(3-fluoro-2-methylphenyl)-2-(((S)-1-methylpyrrolidin-2-yl)methoxy)-6,7,8,9-tetrahydro-5H-pyrimido[4,5-c]azepin-4-yl)piperazin-2-yl)acetonitrile]	≤ 500 nM

More lines, now with the values ahead:

IC50	SMILES
≤ 500 nM	C=CC(=O)N1CCN(c2nc(OC[C@@H]3CCCN3C)nc3c2CCCN(c2c(F)ccc4ccccc24)C3)C[C@@H]1CC#N [Example 10, 2-((S)-1-acryloyl-4-(8-(2-fluoronaphthalen-1-yl)-2-(((S)-1-methylpyrrolidin-2-yl)methoxy)-6,7,8,9-tetrahydro-5H-pyrimido[4,5-c]azepin-4-yl)piperazin-2-yl)acetonitrile]
> 500 nM	C=CC(=O)N1CCN(c2nc(OC[C@@H]3CCCN3C)nc3c2CCCN(c2cccc4c(C)cccc24)C3)C[C@@H]1CC#N [Example 11, 2-((S)-1-acryloyl-4-(8-(5-methylnaphthalen-1-yl)-2-(((S)-1-methylpyrrolidin-2-yl)methoxy)-6,7,8,9-tetrahydro-5H-pyrimido[4,5-c]azepin-4-yl)piperazin-2-yl)acetonitrile]
≤ 500 nM	C=CC(=O)N1CCN(c2nc(OC[C@@H]3CCCN3C)nc3c2CCCN(c2cccc4c(F)cccc24)C3)C[C@@H]1CC#N [Example 12, 2-((S)-1-acryloyl-4-(8-(5-fluoronaphthalen-1-yl)-2-(((S)-1-methylpyrrolidin-2-yl)methoxy)-6,7,8,9-tetrahydro-5H-pyrimido[4,5-c]azepin-4-yl)piperazin-2-yl)acetonitrile]
≤ 500 nM	C=CC(=O)N1CCN(c2nc(OC[C@@H]3CCCN3C)nc3c2CCCN(c2cccc(F)c2C(F)(F)F)C3)C[C@@H]1CC#N [Example 14, 2-[(2S)-4-[8-[3-fluoro-2-(trifluoromethyl)phenyl]-2-[[(2S)-1-methylpyrrolidin-2-yl]methoxy]-5,6,7,9-tetrahydropyrimido[4,5-c]azepin-4-yl]-1-prop-2-enoyl-piperazin-2-yl]acetonitrile]
> 500 nM	C=CC(=O)N1CCN(c2nc(OC[C@@H]3CCCN3C)nc3c2CCCN(c2ncccc2C(F)(F)F)C3)C[C@@H]1CC#N [Example 15, 2-[(2S)-4-[2-[[(2S)-1-methylpyrrolidin-2-yl]methoxy]-8-[3-(trifluoromethyl)-2-pyridyl]-5,6,7,9-tetrahydropyrimido[4,5-c]azepin-4-yl]-1-prop-2-enoyl-piperazin-2-yl]acetonitrile]
> 500 nM	C=CC(=O)N1CCN(c2nc(OC[C@@H]3CCCN3C)nc3c2CCCN(c2ccccc2CO)C3)C[C@@H]1CC#N [Example 16, 2-[(2S)-4-[8-[2-(hydroxymethyl)phenyl]-2-[[(2S)-1-methylpyrrolidin-2-yl]methoxy]-5,6,7,9-tetrahydropyrimido[4,5-c]azepin-4-yl]-1-prop-2-enoyl-piperazin-2-yl]acetonitrile]
≤ 500 nM	C=CC(=O)N1CCN(c2nc(OC[C@@H]3CCCN3C)nc3c2CCCN(c2nccc4cccc(C)c24)C3)C[C@@H]1CC#N [Example 17, 2-[(2S)-4-[8-(8-methyl-1-isoquinolyl)-2-[[(2S)-1-methylpyrrolidin-2-yl]methoxy]-5,6,7,9-tetrahydropyrimido[4,5-c]azepin-4-yl]-1-prop-2-enoyl-piperazin-2-yl]acetonitrile]
≤ 500 nM	C=CC(=O)N1CCN(c2nc(OC[C@@H]3CCCN3C)nc3c2CCCN(c2c(C)cccc2F)C3)C[C@@H]1CC#N [Example 18, 2-[(2S)-4-[8-(2-fluoro-6-methyl-phenyl)-2-[[(2S)-1-methylpyrrolidin-2-yl]methoxy]-5,6,7,9-tetrahydropyrimido[4,5-c]azepin-4-yl]-1-prop-2-enoyl-piperazin-2-yl]acetonitrile]
> 500 nM	C=CC(=O)N1CCN(c2nc(OC[C@@H]3CCCN3C)nc3c2CCCN(c2c(C)ccc4[nH]ncc24)C3)C[C@@H]1CC#N [Example 19, 2-[(2S)-4-[8-(5-methyl-1H-indazol-4-yl)-2-[[(2S)-1-methylpyrrolidin-2-yl]methoxy]-5,6,7,9-tetrahydropyrimido[4,5-c]azepin-4-yl]-1-prop-2-enoyl-piperazin-2-yl]acetonitrile]
